According to patent US9156845B2, “4-(substituted amino)-7H-pyrrolo[2,3-d] pyrimidines as LRRK2 inhibitors” (Pfizer Inc., priority 2012, dated 2015):
Like-named read-outs stand apart in the source and are kept apart here.

Experiments:
Experiment in all cases: ActivX kinase probe assay (human PBMC)
Assay type in all cases: binding
TBK1 = TBK1 (Homo sapiens (Human), UniProt Q9UHD2); settings: TBK1, read-out: percent inhibition
p38a = p38a (Homo sapiens (Human), UniProt Q16539); settings: p38a, read-out: percent inhibition
p38a, sequence (Q16539 whole entry): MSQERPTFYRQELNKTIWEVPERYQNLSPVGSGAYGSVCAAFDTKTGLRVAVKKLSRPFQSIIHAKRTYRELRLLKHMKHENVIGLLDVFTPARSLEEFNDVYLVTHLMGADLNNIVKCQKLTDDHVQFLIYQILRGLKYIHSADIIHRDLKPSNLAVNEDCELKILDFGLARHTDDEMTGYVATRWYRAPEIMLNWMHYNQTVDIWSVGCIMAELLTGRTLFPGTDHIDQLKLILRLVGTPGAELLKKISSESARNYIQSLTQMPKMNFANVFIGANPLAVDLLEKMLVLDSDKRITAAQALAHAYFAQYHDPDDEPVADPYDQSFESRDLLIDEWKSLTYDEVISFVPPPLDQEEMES

ABL, ARG = tested on: ABL, ARG
JNK1, JNK2, JNK3 = tested on: JNK1, JNK2, JNK3
OSR1 = OSR1 (Homo sapiens (Human), UniProt O95747); settings: OSR1, read-out: percent inhibition
Wnk1, Wnk2, Wnk3 = tested on: Wnk1, Wnk2, Wnk3
SGK3 = SGK3 (Homo sapiens (Human), UniProt Q96BR1); settings: SGK3, read-out: percent inhibition
SRC = SRC (Homo sapiens (Human), UniProt P12931); settings: SRC, read-out: percent inhibition
GCK = GCK (Homo sapiens (Human), UniProt Q12851); settings: GCK, read-out: percent inhibition
GCK, sequence (Q12851 whole entry): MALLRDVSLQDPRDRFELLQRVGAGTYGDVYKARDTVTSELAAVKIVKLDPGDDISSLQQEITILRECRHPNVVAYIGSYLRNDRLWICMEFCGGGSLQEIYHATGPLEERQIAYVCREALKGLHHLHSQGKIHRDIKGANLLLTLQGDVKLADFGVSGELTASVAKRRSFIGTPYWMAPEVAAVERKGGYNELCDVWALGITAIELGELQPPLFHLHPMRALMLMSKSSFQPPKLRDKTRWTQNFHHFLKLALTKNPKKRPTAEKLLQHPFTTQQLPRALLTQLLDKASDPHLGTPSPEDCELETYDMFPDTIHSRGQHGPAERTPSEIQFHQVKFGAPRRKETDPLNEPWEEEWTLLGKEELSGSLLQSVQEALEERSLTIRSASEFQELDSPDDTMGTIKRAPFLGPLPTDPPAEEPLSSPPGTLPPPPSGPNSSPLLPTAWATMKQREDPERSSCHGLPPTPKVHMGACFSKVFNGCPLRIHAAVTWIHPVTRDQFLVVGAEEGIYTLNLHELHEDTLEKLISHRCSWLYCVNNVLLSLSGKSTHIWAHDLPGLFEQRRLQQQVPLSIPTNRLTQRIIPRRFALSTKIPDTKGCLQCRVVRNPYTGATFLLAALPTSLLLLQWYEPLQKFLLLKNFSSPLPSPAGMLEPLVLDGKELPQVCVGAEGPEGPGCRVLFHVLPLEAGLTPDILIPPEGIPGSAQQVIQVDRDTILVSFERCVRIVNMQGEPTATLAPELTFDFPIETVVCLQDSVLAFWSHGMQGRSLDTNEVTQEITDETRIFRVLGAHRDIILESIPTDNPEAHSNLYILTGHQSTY

NEK9 = NEK9 (Homo sapiens (Human), UniProt Q8TD19); settings: NEK9, read-out: percent inhibition
smMLCK = smMLCK (Homo sapiens (Human), UniProt Q15746); settings: smMLCK, read-out: percent inhibition
PIP5K3 = PIP5K3 (Homo sapiens (Human), UniProt Q9Y2I7); settings: PIP5K3, read-out: percent inhibition
PAN3 = PAN3 (Homo sapiens (Human), UniProt Q58A45); settings: PAN3, read-out: percent inhibition
PAN3, sequence (Q58A45 whole entry): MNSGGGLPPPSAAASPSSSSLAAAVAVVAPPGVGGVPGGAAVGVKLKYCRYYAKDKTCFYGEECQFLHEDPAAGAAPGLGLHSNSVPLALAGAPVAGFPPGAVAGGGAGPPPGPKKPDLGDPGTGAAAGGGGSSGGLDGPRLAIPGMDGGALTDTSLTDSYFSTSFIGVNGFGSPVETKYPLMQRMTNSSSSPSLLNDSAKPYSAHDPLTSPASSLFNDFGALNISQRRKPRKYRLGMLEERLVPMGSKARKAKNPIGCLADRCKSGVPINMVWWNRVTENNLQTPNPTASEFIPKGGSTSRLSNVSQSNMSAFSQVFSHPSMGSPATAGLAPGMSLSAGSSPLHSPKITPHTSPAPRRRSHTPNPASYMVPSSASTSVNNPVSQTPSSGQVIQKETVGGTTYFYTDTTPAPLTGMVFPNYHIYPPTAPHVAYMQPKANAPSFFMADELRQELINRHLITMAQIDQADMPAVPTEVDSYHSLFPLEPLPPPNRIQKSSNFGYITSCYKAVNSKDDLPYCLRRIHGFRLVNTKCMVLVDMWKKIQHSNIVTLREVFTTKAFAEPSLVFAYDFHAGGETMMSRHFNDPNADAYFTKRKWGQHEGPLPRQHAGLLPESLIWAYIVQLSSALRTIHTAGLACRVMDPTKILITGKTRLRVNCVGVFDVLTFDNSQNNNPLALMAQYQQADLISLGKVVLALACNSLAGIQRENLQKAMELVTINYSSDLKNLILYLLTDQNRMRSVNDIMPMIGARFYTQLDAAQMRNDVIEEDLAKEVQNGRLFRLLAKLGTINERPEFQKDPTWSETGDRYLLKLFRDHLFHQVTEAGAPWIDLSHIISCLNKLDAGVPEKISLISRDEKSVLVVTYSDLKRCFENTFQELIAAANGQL

IRAK3 = IRAK3 (Homo sapiens (Human), UniProt Q9Y616); settings: IRAK3, read-out: percent inhibition
FER = FER (Homo sapiens (Human), UniProt P16591); settings: FER, read-out: percent inhibition
ZAK = ZAK (Homo sapiens (Human), UniProt Q9NYL2); settings: ZAK, read-out: percent inhibition
ZAK, sequence (Q9NYL2 whole entry): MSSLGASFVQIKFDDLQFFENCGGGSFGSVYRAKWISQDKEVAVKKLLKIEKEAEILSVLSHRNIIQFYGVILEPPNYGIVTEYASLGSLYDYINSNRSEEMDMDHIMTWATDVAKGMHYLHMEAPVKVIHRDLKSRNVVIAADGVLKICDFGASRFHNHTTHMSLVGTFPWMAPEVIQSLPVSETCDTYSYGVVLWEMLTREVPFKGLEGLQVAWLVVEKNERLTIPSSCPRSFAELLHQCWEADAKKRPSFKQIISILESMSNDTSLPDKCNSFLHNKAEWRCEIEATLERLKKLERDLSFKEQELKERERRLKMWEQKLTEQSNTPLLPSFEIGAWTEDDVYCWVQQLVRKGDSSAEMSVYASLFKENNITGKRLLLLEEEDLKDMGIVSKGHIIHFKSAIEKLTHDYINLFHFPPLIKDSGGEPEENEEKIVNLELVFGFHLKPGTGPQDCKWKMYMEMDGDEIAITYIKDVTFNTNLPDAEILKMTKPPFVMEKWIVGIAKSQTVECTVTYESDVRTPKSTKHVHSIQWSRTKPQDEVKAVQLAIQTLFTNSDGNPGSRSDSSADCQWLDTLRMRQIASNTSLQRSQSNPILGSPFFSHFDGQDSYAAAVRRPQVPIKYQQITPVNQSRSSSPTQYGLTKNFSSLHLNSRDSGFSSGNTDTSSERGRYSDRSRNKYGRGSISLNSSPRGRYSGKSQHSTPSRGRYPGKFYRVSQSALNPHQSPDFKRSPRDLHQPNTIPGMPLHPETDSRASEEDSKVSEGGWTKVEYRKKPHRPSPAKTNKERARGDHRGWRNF

p70S6K = p70S6K (Homo sapiens (Human), UniProt P23443); settings: p70S6K, read-out: percent inhibition
p70S6K, sequence (P23443 whole entry): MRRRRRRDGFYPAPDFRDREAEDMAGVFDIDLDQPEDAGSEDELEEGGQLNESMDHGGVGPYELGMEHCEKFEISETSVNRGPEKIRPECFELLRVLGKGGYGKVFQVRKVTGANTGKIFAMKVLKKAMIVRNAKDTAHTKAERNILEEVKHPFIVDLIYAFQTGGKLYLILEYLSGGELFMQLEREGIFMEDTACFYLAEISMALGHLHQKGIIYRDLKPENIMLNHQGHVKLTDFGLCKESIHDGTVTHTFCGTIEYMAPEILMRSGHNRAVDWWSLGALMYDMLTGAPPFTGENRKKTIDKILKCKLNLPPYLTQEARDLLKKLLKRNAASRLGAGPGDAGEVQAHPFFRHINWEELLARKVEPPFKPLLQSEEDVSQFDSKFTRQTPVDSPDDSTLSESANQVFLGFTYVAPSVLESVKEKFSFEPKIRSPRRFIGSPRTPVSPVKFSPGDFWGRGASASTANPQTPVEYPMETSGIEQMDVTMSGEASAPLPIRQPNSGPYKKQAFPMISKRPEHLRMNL

MAP2K4 = MAP2K4 (Homo sapiens (Human), UniProt P45985); settings: MAP2K4, read-out: percent inhibition
TLK2 = TLK2 (Homo sapiens (Human), UniProt Q86UE8); settings: TLK2, read-out: percent inhibition
FAK = FAK (Homo sapiens (Human), UniProt Q05397); settings: FAK, read-out: percent inhibition
PIP4K2C = PIP4K2C (Homo sapiens (Human), UniProt Q8TBX8); settings: read-out: percent inhibition
PIP4K2C, sequence (Q8TBX8 whole entry): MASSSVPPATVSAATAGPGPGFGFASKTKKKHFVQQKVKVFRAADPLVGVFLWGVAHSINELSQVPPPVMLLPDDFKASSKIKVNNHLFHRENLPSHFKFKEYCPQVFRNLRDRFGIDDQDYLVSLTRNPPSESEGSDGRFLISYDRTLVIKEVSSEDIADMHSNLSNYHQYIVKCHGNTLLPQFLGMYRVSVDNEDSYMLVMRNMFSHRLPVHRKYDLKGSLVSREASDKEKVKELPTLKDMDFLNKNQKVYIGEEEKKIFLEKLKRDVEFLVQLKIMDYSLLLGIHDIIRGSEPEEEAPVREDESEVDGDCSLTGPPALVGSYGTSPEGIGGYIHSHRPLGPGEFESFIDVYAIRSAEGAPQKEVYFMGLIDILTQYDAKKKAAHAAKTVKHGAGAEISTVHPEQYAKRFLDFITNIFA

PYK2 = PYK2 (Homo sapiens (Human), UniProt Q14289); settings: PYK2, read-out: percent inhibition
SYK = SYK (Homo sapiens (Human), UniProt P43405); settings: SYK, read-out: percent inhibition
LKB1 = LKB1 (Homo sapiens (Human), UniProt Q15831); settings: LKB1, read-out: percent inhibition
LRRK2 = LRRK2 (Homo sapiens (Human), UniProt Q5S007); settings: 0.1 μM, read-out: percent inhibition
MAP2K1, MAP2K2 = tested on: MAP2K1, MAP2K2
p70S6Kb = p70S6Kb (Homo sapiens (Human), UniProt Q9UBS0); settings: p70S6Kb, read-out: percent inhibition
p70S6K, p70S6Kb = tested on: p70S6K, p70S6Kb
CDK11, CDK8 = tested on: CDK11, CDK8
AMPKa1 = AMPKa1 (Homo sapiens (Human), UniProt Q13131); settings: AMPKa1, read-out: percent inhibition
AMPKa1, sequence (Q13131 whole entry): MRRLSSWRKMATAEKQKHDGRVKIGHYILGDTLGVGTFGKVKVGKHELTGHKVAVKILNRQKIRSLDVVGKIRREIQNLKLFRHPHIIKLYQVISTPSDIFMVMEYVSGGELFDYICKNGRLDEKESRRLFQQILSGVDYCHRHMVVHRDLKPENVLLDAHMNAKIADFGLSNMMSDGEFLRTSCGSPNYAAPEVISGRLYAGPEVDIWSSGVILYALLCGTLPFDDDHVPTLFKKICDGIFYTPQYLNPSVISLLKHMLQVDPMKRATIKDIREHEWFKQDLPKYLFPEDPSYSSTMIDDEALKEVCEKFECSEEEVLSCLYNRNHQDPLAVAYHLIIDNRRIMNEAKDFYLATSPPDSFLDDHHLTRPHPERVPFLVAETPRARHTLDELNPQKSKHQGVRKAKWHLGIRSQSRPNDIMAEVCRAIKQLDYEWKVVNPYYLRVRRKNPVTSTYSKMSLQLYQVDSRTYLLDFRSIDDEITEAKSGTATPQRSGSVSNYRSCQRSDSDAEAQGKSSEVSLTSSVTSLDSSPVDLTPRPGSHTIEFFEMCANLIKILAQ
AMPKa1, sequence (Q9Y478 2-270 partner): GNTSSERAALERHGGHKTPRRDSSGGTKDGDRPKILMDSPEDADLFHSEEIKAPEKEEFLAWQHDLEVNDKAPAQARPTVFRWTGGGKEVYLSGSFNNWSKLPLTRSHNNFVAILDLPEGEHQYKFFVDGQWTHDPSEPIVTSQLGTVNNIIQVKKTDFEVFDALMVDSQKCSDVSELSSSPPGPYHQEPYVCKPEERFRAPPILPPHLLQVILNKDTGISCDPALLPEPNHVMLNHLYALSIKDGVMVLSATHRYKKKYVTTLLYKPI
AMPKa1, sequence (P54619 whole entry partner): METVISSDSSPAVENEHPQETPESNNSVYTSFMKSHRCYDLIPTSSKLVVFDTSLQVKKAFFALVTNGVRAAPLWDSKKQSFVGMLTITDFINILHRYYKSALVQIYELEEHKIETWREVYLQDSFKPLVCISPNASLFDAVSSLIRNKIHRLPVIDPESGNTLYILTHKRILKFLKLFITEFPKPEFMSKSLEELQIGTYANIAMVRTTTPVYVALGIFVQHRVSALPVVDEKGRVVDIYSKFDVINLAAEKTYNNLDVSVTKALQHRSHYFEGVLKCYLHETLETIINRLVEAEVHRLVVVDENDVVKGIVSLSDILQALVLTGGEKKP

FYN = FYN (Homo sapiens (Human), UniProt P06241); settings: FYN, read-out: percent inhibition
MAP3K4 = MAP3K4 (Homo sapiens (Human), UniProt Q9Y6R4); settings: MAP3K4, read-out: percent inhibition
LATS2 = LATS2 (Homo sapiens (Human), UniProt Q9NRM7); settings: LATS2, read-out: percent inhibition
IRAK4 = IRAK4 (Homo sapiens (Human), UniProt Q9NWZ3); settings: IRAK4, read-out: percent inhibition

`Cn1cc(-c2c[nH]c3ncnc(N4CCOCC4)c23)cc1C#N` [Example 217, 1-methyl-4-[4-(morpholin-4-yl)-7H-pyrrolo[2,3-d]pyrimidin-5-yl]-1H-pyrrole-2-carbonitrile] gave an inhibition at 0.1 µM (TBK1; 0.1 μM) of 1.9%, an inhibition at 1 µM (TBK1; 1 μM) of 0.1% and an inhibition at 0.1 µM (p38a; 0.1 μM) of -1.1%. The inhibition at 1 µM (p38a; 1 μM) was -4.6%, the percent inhibition (ABL, ARG; 0.1 μM) was 4.6% and the percent inhibition (ABL, ARG; 1 μM) was −1.6%. For the same compound, the percent inhibition (JNK1, JNK2, JNK3; 0.1 μM) was −18.2%, the percent inhibition (JNK1, JNK2, JNK3; 1 μM) was −6.4% and the inhibition at 0.1 µM (OSR1; 0.1 μM) was 5.2%. It also gave an inhibition at 1 µM (OSR1; 1 μM) of -12.3%, a percent inhibition (Wnk1, Wnk2, Wnk3; 0.1 μM) of −6.3% and a percent inhibition (Wnk1, Wnk2, Wnk3; 1 μM) of −21.1%. For the same compound, the inhibition at 0.1 µM (SGK3; 0.1 μM) was 8.5%, the inhibition at 1 µM (SGK3; 1 μM) was 16.9% and the inhibition at 0.1 µM (SRC; 0.1 μM) was -1%. It also gave an inhibition at 1 µM (SRC; 1 μM) of 1.1%, an inhibition at 0.1 µM (GCK; 0.1 μM) of -5.2% and an inhibition at 1 µM (GCK; 1 μM) of 27.2%. The inhibition at 0.1 µM (NEK9; 0.1 μM) was -11%, the inhibition at 1 µM (NEK9; 1 μM) was 1.5% and the inhibition at 0.1 µM (smMLCK; 0.1 μM) was 1.7%. The inhibition at 1 µM (smMLCK; 1 μM) was 3.5%, the inhibition at 0.1 µM (PIP5K3; 0.1 μM) was 16% and the inhibition at 1 µM (PIP5K3; 1 μM) was 2.5%. The inhibition at 0.1 µM (PAN3; 0.1 μM) was 5.6%, the inhibition at 1 µM (PAN3; 1 μM) was -7.5% and the inhibition at 0.1 µM (IRAK3; 0.1 μM) was 16%. It also gave an inhibition at 1 µM (IRAK3; 1 μM) of 72.4%, an inhibition at 0.1 µM (FER; 0.1 μM) of 5.2% and an inhibition at 1 µM (FER; 1 μM) of 16.3%. The inhibition at 0.1 µM (ZAK; 0.1 μM) was -2.9%, the inhibition at 1 µM (ZAK; 1 μM) was -1.2% and the inhibition at 0.1 µM (p70S6K; 0.1 μM) was 3.5%. The inhibition at 1 µM (p70S6K; 1 μM) was -9.6%, the inhibition at 0.1 µM (MAP2K4; 0.1 μM) was 2.3% and the inhibition at 1 µM (MAP2K4; 1 μM) was 1.6%. For the same compound, the inhibition at 0.1 µM (TLK2; 0.1 μM) was 11.1%, the inhibition at 1 µM (TLK2; 1 μM) was 16% and the inhibition at 0.1 µM (FAK; 0.1 μM) was 8.1%. The inhibition at 1 µM (FAK; 1 μM) was 17.4%, the inhibition at 0.1 µM (PIP4K2C; PIP4K2C (first line of two)) was 6.2% and the inhibition at 1 µM (PIP4K2C; PIP4K2C (first line of two)) was -11.9%. The inhibition at 0.1 µM (PIP4K2C; PIP4K2C (second line of two)) was -4.7%, the inhibition at 1 µM (PIP4K2C; PIP4K2C (second line of two)) was 4% and the inhibition at 0.1 µM (PYK2; 0.1 μM) was -1%. For the same compound, the inhibition at 1 µM (PYK2; 1 μM) was 8.4%, the inhibition at 0.1 µM (SYK; 0.1 μM) was -2% and the inhibition at 1 µM (SYK; 1 μM) was -5.1%. It also gave an inhibition at 0.1 µM (LKB1; 0.1 μM) of -5.3%, an inhibition at 1 µM (LKB1; 1 μM) of 2.4% and an inhibition at 0.1 µM (LRRK2) of 88.4%. It also gave a percent inhibition (MAP2K1, MAP2K2; 0.1 μM) of 10.9%, a percent inhibition (MAP2K1, MAP2K2; 1 μM) of −2.6% and an inhibition at 0.1 µM (p70S6Kb; 0.1 μM) of -2.2%. It also gave an inhibition at 1 µM (p70S6Kb; 1 μM) of -16.7%, a percent inhibition (p70S6K, p70S6Kb; 0.1 μM) of 5.5% and a percent inhibition (p70S6K, p70S6Kb; 1 μM) of 5.4%. For the same compound, the percent inhibition (CDK11, CDK8; 0.1 μM) was −5.6%, the percent inhibition (CDK11, CDK8; 1 μM) was −5.2% and the inhibition at 0.1 µM (AMPKa1; 0.1 μM) was 27.2%. It also gave an inhibition at 1 µM (AMPKa1; 1 μM) of 48.8%, an inhibition at 0.1 µM (FYN; 0.1 μM) of -2.1% and an inhibition at 1 µM (FYN; 1 μM) of -6.8%. For the same compound, the inhibition at 0.1 µM (MAP3K4; 0.1 μM) was -35.5%, the inhibition at 1 µM (MAP3K4; 1 μM) was -27.4% and the inhibition at 0.1 µM (LATS2; 0.1 μM) was 5.8%. It also gave an inhibition at 1 µM (LATS2; 1 μM) of -23.7%, an inhibition at 0.1 µM (IRAK4; 0.1 μM) of 14.7% and an inhibition at 1 µM (IRAK4; 1 μM) of 34.5%.
